Test [1] deals with 4 mm punch biopsy wounds of the upper inner arm. The test can be described thus: Topical oestrogen patch clinical trial of wound healing in elderly men and women. The class given is in vivo, human. Also on record: key to Collagen Quantities: +=minimal quantities; ++=less than normal skin; +++=similar to normal skin; ++++=greater than normal skin. The following applies: for scarring, microscopically and macroscopically (FIGS. 7 and 8): scored as in 2.1.4.2; for Collagen Quantities: oestradiol patch, DAY 7; for % Rate of re-epithelialisation / Wound area: day 7 post-wounding. As for the experimental part: Approval for this study was given by the local Ethics Committee. Forty health-status defined volunteers split into four groups: (i) GROUP 3A comprised ten women with mean age 76.3 yr (Sd 5.6) who received oestrogen supplements (25 μg/24 hrs of oestradiol) (ii) GROUP 3B comprised ten women with mean age 72.5 yr (Sd 7.1) who received placebo instead of oestrogen. (iii) GROUP 3C comprised ten men with mean age 69.6 yr (Sd 3.6) who received oestrogen supplements (ii) GROUP 3D comprised ten men with mean age 71.8 yr (Sd 8.9) who received placebo instead of oestrogen. After informed consent subjects from each of Groups 3A, 3B, 3C and 3D underwent two 4 mm punch biopsies from the upper inner arm (a non sun-exposed site) following local infiltration with 1 ml 1% lignocaine. Each biopsy of normal skin was bisected and one-half embedded in Optimal Cutting Temperature compound (Miles Inc. Elkhart, Ind.), frozen over liquid nitrogen, and stored at −70° C., and one-half snap-frozen in liquid nitrogen and stored at −70° C. The area for biopsy was covered by a 2×3 cm patch (placebo Groups 3B and 3D or active oestradiol 3A and 3C) through which the biopsies were made. The patch was covered by a Multisorb dry gauze dressing (Smith & Nephew) and both were removed after 24 hrs. The active patches contained sufficient oestradiol such that the wound sites were exposed to 25 μg/24 hrs of oestradiol. Five subjects from Groups 3A, 3B, 3C and 3D underwent re-excision of the wounds at day 7 post-wounding, and the other five subjects from each group at day 84 post-wounding. The left upper inner arm was cleaned with isopropyl alcohol, elliptical excisions of the wounds were made following 1% lignocaine infiltration and two sutures were used to close the gap. Each wound was bisected and processed as described above (3.1.3). 7 μm paraffin-embedded sections were strained with H&E and Masson's Trichrome. The rate of re-epithelialisation (at day 7 post-wounding), and wound sizes as determined by planimetry, were determined with image analysis using an Olympus Vanox camera and PC image capture system. Collagen quantity within the wound was determined by two observers blinded to the identity of the specimen on the following scale +=minimal quantities; ++=less than normal skin; +++=similar to normal skin; ++++=greater than normal skin. The wound stiffness at day 80 was determined using the non-disruptive Dimensional Analysis System (Das). Previous studies have correlated wound breaking strength values (ultimate pressure at failure) to wound stiffness using this system. The system applies a multiaxial load (negative pressure) to the wound and measures the deformation due to the load of two reflective targets placed at the wound edges, using a high resolution camera and video processor. Pressure was applied to a maximum of 100 mmHg and then released, Stiffness was measured between 20 and 80 mmHg.

Another test deals with elastase. The test can be described thus: Wound elastase activity: fibronectin zymography, immunoblotting and elastase substrate degradation. The following applies: day 7 wounds compared to placebo. It is filed as in vivo, human. The procedure:
Proteases responsible for fibronectin degradation were identified by zymography using fibronectin-containing acrylamide gels (12% acrylamide and 0.33 mg/ml fibronectin, Central Blood Products Ltd). Tissue samples were lyophilized and homogenized using a ground glass homogenizer containing 0.5 ml buffer (100 mM Tris/HCl, 6M Urea, 15 mM CaCl2, 0.25% Triton-X100, pH 7.4). After centrifugation at 11,000 rpm for 10 min at 4° C. samples (20 μg dry wt) were incubated for 30 min at 37° C. with 2× Laemmli sample buffer and subjected to electrophoresis under non-reducing conditions (Laemmli, 1970). After electrophoresis, the gels were washed twice with 2.5% Triton-X100 for 1 hr to remove SDS. The gels were briefly washed with double distilled water and incubated for 18 h at 37° C. in developing buffer containing 50 mM Tris/HCl, 150 mM NaCl and 5 mM CaCl2, pH 7.4. At the end of incubation the gels were stained with 0.5% Coomassie brilliant blue and destained. […]
Tissue samples (20 μg dry wt) and human neutrophil elastase (0.01-0.3 μg/ml) were incubated for up to 1 h at 37° C. in 200 μl of 0.1M Hepes buffer, pH 7.5, containing 0.5M NaCl, 10% dimethylsulfoxide and 0.1 mM elastase substrate (methoxysuccinyl-ala-ala-pro-val-p-nitroanilide; Calibiochem Co;). Substrate degradation was determined by measuring OD410 (Dynatech MR5000). […] Results were expressed as ng/ml elastase activity/20 μg dry wt.
A general note: Immunoblotting shows a protein as a band on a membrane.

In test [2] the test system is full thickness incisional wounds. As to the kind of experiment: Incisional wound healing in OVX and sham rats, histology at day 7 post-wounding. It is filed as in vivo, Female Sprague Dawley rats. The following applies: day 7 wound from an intact female rat treated with oestrogen.
Test [3] concerns 4 mm punch biopsy wounds of the upper inner arm. As to the kind of experiment: Topical oestrogen patch clinical trial of wound healing in elderly men and women. It is filed as in vivo, human. More on the design: key to Collagen Quantities: +=minimal quantities; ++=less than normal skin; +++=similar to normal skin; ++++=greater than normal skin. The conditions noted are these: for Collagen Quantities: oestradiol patch, DAY 80.

Where [4] appears, read: FEMALES (3A), patch 25 μg/24 hrs of oestradiol for 24 hrs.
Where [5] appears, read: MALES (3C), patch 25 μg/24 hrs of oestradiol for 24 hrs.

Marks after values point to notes of the source that are not given here.

As to `CC(=O)[C@H]1CC[C@H]2[C@@H]3CCC4=CC(=O)CC[C@]4(C)[C@H]3CC[C@]12C` [Progesterone, progesterone], the “scarring, microscopically and macroscopically (FIGS. 7 and 8)” value in test [1] was “superior scaring”.

For the molecule `C[C@]12CC[C@@H]3c4ccc(O)cc4CC[C@H]3[C@@H]1CC[C@@H]2O` [Oestrogen], the “Collagen Quantities” value in test [1] (FEMALES (3A)) is “++”; in test [1] (MALES (3C)), “++”; in test [3] (FEMALES (3A)), “++++”; in test [3] (MALES (3C)), “++++”. The “% Rate of re-epithelialisation” value in test [1] (setting [4]) is on record as 74.5 (10.5)* %; in test [1] (setting [5]), 62.5 (21.7) %. The Wound area in test [1] (setting [4]) is listed as 1204 (49)*; in test [1] (setting [5]), 1173 (61)*; in test [1] (oestrogen treatment, p<0.05), “significantly reduced”. Also, the “Wound stiffness (Dimensional Analysis System)” value in test [1] (day 80 post-wounding) is reported as “not affected”. The rate of re-epithelialization result in test [1] (female (3A) and male subjects (3C) relative to placebo controls) was “accelerated”. In addition, the “scarring, microscopically and macroscopically (FIGS. 7 and 8)” value in test [1] is “inferior quality of wound”. Also, the “elastase activity (synthetic elastase substrate degradation assay)” value in the test on elastase is “significantly reduced”. Besides, in test [2], the “wound healing in stained sections (FIG. 1 c)” value is listed as “improved wound healing”. Further, the Collagen levels result in test [3] (day 7 and day 80 post-wounding, both sexes (3A and 3C) compared to placebo) is listed as “consistently increased”.
